# Results as given in patent US20260001849A1, “NOVEL B0AT1 INHIBITOR” (MITSUBISHI TANABE PHARMA CORPORATION, priority 2023, published 2026).
# Target: T1, Human BOAT1 (Homo sapiens, UniProt Q695T7)
# T1 construct: expressed in transfected cells
# T1 sequence (Q695T7 1-634): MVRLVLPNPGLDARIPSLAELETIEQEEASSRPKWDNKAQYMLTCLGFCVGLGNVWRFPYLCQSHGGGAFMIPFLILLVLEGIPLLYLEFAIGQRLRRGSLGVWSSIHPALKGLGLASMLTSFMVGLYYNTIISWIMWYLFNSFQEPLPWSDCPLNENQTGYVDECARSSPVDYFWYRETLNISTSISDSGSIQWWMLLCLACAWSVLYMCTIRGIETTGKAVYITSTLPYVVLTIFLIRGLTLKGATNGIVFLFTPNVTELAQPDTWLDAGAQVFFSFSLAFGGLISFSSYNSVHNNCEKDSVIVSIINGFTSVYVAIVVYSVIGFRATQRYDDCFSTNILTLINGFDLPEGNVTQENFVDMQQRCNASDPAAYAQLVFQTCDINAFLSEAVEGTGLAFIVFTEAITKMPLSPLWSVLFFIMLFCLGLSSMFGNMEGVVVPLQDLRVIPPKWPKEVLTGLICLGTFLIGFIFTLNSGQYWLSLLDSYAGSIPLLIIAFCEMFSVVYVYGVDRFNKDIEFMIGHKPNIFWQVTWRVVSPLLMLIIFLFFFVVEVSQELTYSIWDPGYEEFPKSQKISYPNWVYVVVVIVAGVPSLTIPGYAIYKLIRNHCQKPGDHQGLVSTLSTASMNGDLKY
# Assay: hBOAT1 inhibitory test (phenylalanine uptake)
# Format: cell-based
# Conditions: Human BOAT1 stable expression CHO cells; [3H]-L-phenylalanine uptake, phenylalanine 0.25 mM; radioactivity after 100 to 200 min; read-out: hB0AT1 IC50
# Protocol: A test compound dissolved in dimethyl sulfoxide (DMSO) was added to a 96 well plate for solid phase radioactivity measurement containing a scintillator at the bottom of the well (final concentration of DMSO 0.5%). DMSO alone as a control and DMSO containing N-(4-bromophenyl)-3,5-dichloro-2-hydroxybenzamide (final concentration […]) for the measurement of BOAT1 non-specific uptake were similarly added at 0.5 μL per well. Human BOAT1 stable expression CHO cells suspended in a buffer (buffer containing 96 mM sodium chloride, 2 mM potassium chloride, 1.8 mM calcium chloride, 1 mM magnesium chloride, 0.01% bovine serum albumin, and 10 mM 2-[4-(2-hydroxyethyl)-1-piperazinyl]ethanesulfonic acid) were added by 90 μL to 75000 cells/well. After standing at ordinary temperature for 30 min or longer, the cells were subjected to a phenylalanine uptake experiment. A buffer containing L-phenylalanine and [3,4,5-3H]-L-phenylalanine was added by 10 μL per well (final concentration of phenylalanine 0.25 mM), and the radioactivity of the plate bottom surface at ordinary temperature was measured with a scintillation counter over time, and the radioactivity value after 100 to 200 min was analyzed.
row,Structure (SMILES),IC50 [nM]
1,"O=C(/C=C/c1ccc(C(F)(F)F)cc1F)NCC(=O)N1CCN(C[C@H]2C[C@@H](C(=O)O)C2)CC1c1ccc(Cl)cc1 (mixture of isomers) [I-249, 3-[[3-(4-chlorophenyl)-4-[2-[[(E)-3-[2-fluoro-4-(trifluoromethyl)phenyl]prop-2-enoyl]amino]acetyl]piperazin-1-yl]methyl]cyclobutane-1-carboxylic acid]",96
2,COC(=O)CCCN1CCN(C(=O)CNC(=O)/C=C/c2ccc(C(F)(F)F)cc2)C(c2ccccc2)C1 (centres unmarked) [I-4],50
3,COC(=O)CNc1ccc2c(c1)CCN(C(=O)CNC(=O)/C=C/c1ccc(C(F)(F)F)cc1)C2 [I-11],81
4,COC(=O)Cn1nc(C)c2c1CCN(C(=O)CNC(=O)/C=C/c1ccc(C(F)(F)F)cc1)C2 [I-12],89
5,COC(=O)CCc1cc2c(s1)CN(C(=O)CNC(=O)/C=C/c1ccc(C(F)(F)F)cc1)CC2 [I-13],123
6,CC(C)(C)OC(=O)C1CCN(c2ccc3c(c2)CCN(C(=O)CNC(=O)/C=C/c2ccc(C(F)(F)F)cc2)C3)C1 (centres unmarked) [I-26],332
7,CC(C)(C)OC(=O)CCc1ccc2c(c1)CCN(C(=O)CNC(=O)/C=C/c1ccc(C(F)(F)F)cc1)C2 [I-40],996
8,COc1cc(CC(=O)OC(C)(C)C)cc2c1CN(C(=O)CNC(=O)/C=C/c1ccc(C(F)(F)F)cc1)CC2 [I-43],709
9,COC(=O)c1cccc(C2CCCN(C(=O)CNC(=O)/C=C/c3ccc(C(F)(F)F)cc3F)C2)c1 (centres unmarked) [I-61],1670
10,COC(=O)c1cccc(C2CN(C(=O)CNC(=O)/C=C/c3ccc(C(F)(F)F)cc3F)CCN2C)c1 (centres unmarked) [I-62],463
11,COC(=O)Cc1cc(F)c2c(c1)CCN(C(=O)CNC(=O)/C=C/c1ccc(C(F)(F)F)cc1F)C2 [I-118],42
12,"O=C(O)Cc1ccc2c(c1)CCN(C(=O)CNC(=O)/C=C/c1ccc(C(F)(F)F)cc1)CC2 [I-140, 2-[3-[2-[[(E)-3-[4-(trifluoromethyl)phenyl]prop-2-enoyl]amino]acetyl]-1,2,4,5-tetrahydro-3-benzazepin-7-yl]acetic acid]",436
13,O=C(O)Cc1ccc2c(c1)CN(C(=O)CNC(=O)/C=C/c1ccc(C(F)(F)F)cc1)C2 [I-142],241
14,N#Cc1c(CC(=O)O)ccc2c1CCN(C(=O)CNC(=O)/C=C/c1ccc(S(F)(F)(F)(F)F)cc1)C2 [I-152],96
15,O=C(O)Cc1cc(Cl)c2c(c1)CCN(C(=O)CNC(=O)/C=C/c1ccc(I)cc1)C2 [I-155],84
16,O=C(O)CCc1ncc2c(n1)CCN(C(=O)CNC(=O)/C=C/c1ccc(C(F)(F)F)cc1)C2 [I-156],251
17,O=C(/C=C/c1ccc(C(F)(F)F)cc1)NCC(=O)N1CCc2cc(N3CCC(C(=O)O)C3)ccc2C1 (centres unmarked) [I-160],156
18,O=C(/C=C/c1ccc(C(F)(F)F)cc1)NCC(=O)N1CCc2cc(N3CCC(C(=O)O)CC3)ccc2C1 [I-161],259
19,CC(Cc1ccc2c(c1)CCN(C(=O)CNC(=O)/C=C/c1ccc(C(F)(F)F)cc1)C2)C(=O)O (centres unmarked) [I-163],223
20,CC(CC(=O)O)c1ccc2c(c1)CCN(C(=O)CNC(=O)/C=C/c1ccc(C(F)(F)F)cc1)C2 (centres unmarked) [I-164],386
21,O=C(O)Cc1cc2c(cn1)CN(C(=O)CNC(=O)/C=C/c1ccc(C(F)(F)F)cc1)CC2 [I-167],106

row,Structure (SMILES),IC50 [nM]
1,O=C(O)Cc1ccc2c(c1)CN(C(=O)CNC(=O)/C=C/c1ccc(C(F)(F)F)cc1)CC2 [I-168],447
2,O=C(O)CCCc1ccc2c(c1)CCN(C(=O)CNC(=O)/C=C/c1ccc(C(F)(F)F)cc1)C2 [I-170],240
3,COc1cc(CC(=O)O)cc2c1CN(C(=O)CNC(=O)/C=C/c1ccc(C(F)(F)F)cc1)CC2 [I-177],171
4,O=C(O)Cc1cnn2c1CN(C(=O)CNC(=O)/C=C/c1ccc(C(F)(F)F)cc1)CC2 [I-179],872
5,O=C(O)COc1cc(Br)c2c(c1)CCN(C(=O)CNC(=O)/C=C/c1ccc(C(F)(F)F)cc1)C2 [I-181],138
6,O=C(O)Cc1ccc2c(c1)CCN(C(=O)CNC(=O)/C=C/c1ccc(C(F)(F)F)cc1Cl)C2 [I-188],115
7,O=C(O)Cc1ccc2c(c1)CCN(C(=O)CNC(=O)/C=C/c1ccc(C(F)(F)F)c(F)c1)C2 [I-189],424
8,O=C(O)Cc1cccc2c1CCN(C(=O)CNC(=O)/C=C/c1ccc(C(F)(F)F)cc1)C2 [I-192],397
9,O=C(O)CCc1cnn2c1CN(C(=O)CNC(=O)/C=C/c1ccc(C(F)(F)F)cc1)CC2 [I-193],459
10,"O=C(O)CCc1nc2c(s1)CN(C(=O)CNC(=O)/C=C/c1ccc(C(F)(F)F)cc1)CC2 [I-200, 3-[5-[2-[[(E)-3-[4-(trifluoromethyl)phenyl]prop-2-enoyl]amino]acetyl]-6,7-dihydro-4H-[1,3]thiazolo[5,4-c]pyridin-2-yl]propanoic acid]",192
11,N#Cc1c(CC(=O)O)ccc2c1CCN(C(=O)CNC(=O)/C=C/c1ccc(I)cc1F)C2 [I-203],56
12,O=C(O)Cc1ccc2n(c1=O)CCN(C(=O)CNC(=O)/C=C/c1ccc(C(F)(F)F)cc1F)C2 [I-207],579
13,O=C(O)Cc1ncc2c(n1)CCN(C(=O)CNC(=O)/C=C/c1ccc(C(F)(F)F)cc1)C2 [I-208],224
14,CC(F)(F)c1ccc(/C=C/C(=O)NCC(=O)N2CCc3cc(CC(=O)O)ccc3C2)cc1 [I-211],263
15,COCC1c2ccc(CC(=O)O)cc2CCN1C(=O)CNC(=O)/C=C/c1ccc(C(F)(F)F)cc1 (centres unmarked) [I-212],496
16,O=C(O)Cc1ccc2c(c1)C(O)CN(C(=O)CNC(=O)/C=C/c1ccc(C(F)(F)F)cc1)C2 (centres unmarked) [I-213],156
17,CCC1c2ccc(CC(=O)O)cc2CCN1C(=O)CNC(=O)/C=C/c1ccc(C(F)(F)F)cc1 (centres unmarked) [I-216],358
18,O=C(O)CNc1ccc2c(c1)CN(C(=O)CNC(=O)/C=C/c1ccc(C(F)(F)F)cc1)CC2 [I-217],202
19,Cc1nn(CC(=O)O)c2c1CN(C(=O)CNC(=O)/C=C/c1ccc(C(F)(F)F)cc1)CC2 [I-219],256
20,O=C(O)CCc1cc2c(s1)CN(C(=O)CNC(=O)/C=C/c1ccc(C(F)(F)F)cc1)CC2 [I-220],100

# Same assay, conditions: Human BOAT1 stable expression CHO cells; phenylalanine uptake, phenylalanine 0.25 mM; read-out: hB0AT1 IC50
row,Structure (SMILES),IC50 [nM]
1,"O=C(O)CCCN1CCN(C(=O)CNC(=O)/C=C/c2ccc(C(F)(F)F)cc2F)C(c2cccc(Br)c2)C1 (single isomer, unassigned) [I-292, 4-[3-(3-bromophenyl)-4-[2-[[(E)-3-[2-fluoro-4-(trifluoromethyl)phenyl]prop-2-enoyl]amino]acetyl]piperazin-1-yl]butanoic acid]",1200
2,"O=C(O)CCCN1CCN(C(=O)CNC(=O)/C=C/c2ccc(C(F)(F)F)cc2F)C(c2cccc(Br)c2)C1 (single isomer, unassigned) [I-293, 4-[3-(3-bromophenyl)-4-[2-[[(E)-3-[2-fluoro-4-(trifluoromethyl)phenyl]prop-2-enoyl]amino]acetyl]piperazin-1-yl]butanoic acid]",39
3,"O=C(O)CCCN1CCN(C(=O)CNC(=O)/C=C/c2ccc(C(F)(F)F)cc2F)C(c2ccc(Cl)cc2)C1 (single isomer, unassigned) [I-294, 4-[3-(4-chlorophenyl)-4-[2-[[(E)-3-[2-fluoro-4-(trifluoromethyl)phenyl]prop-2-enoyl]amino]acetyl]piperazin-1-yl]butanoic acid]",266
4,"O=C(O)CCCN1CCN(C(=O)CNC(=O)/C=C/c2ccc(C(F)(F)F)cc2F)C(c2ccc(Cl)cc2)C1 (single isomer, unassigned) [I-295, 4-[3-(4-chlorophenyl)-4-[2-[[(E)-3-[2-fluoro-4-(trifluoromethyl)phenyl]prop-2-enoyl]amino]acetyl]piperazin-1-yl]butanoic acid]",51
5,"O=C(/C=C/c1ccc(C(F)(F)F)cc1F)NCC(=O)N1CCN(CC2CC(C(=O)O)C2)CC1c1ccc(Cl)cc1 (single isomer, unassigned) [I-296, 3-[[3-(4-chlorophenyl)-4-[2-[[(E)-3-[2-fluoro-4-(trifluoromethyl)phenyl]prop-2-enoyl]amino]acetyl]piperazin-1-yl]methyl]cyclobutane-1-carboxylic acid]",747
6,"O=C(/C=C/c1ccc(C(F)(F)F)cc1F)NCC(=O)N1CCN(CC2CC(C(=O)O)C2)CC1c1ccc(Cl)cc1 (single isomer, unassigned) [I-297, 3-[[3-(4-chlorophenyl)-4-[2-[[(E)-3-[2-fluoro-4-(trifluoromethyl)phenyl]prop-2-enoyl]amino]acetyl]piperazin-1-yl]methyl]cyclobutane-1-carboxylic acid]",37
